This is an account of results in patent US20230219898A1, “COMPOUNDS AND METHODS FOR BLOCKING APOPTOSIS AND INDUCING AUTOPHAGY” (President and Fellows of Harvard College, priority 2020, published 2023).

Test [1] relates to Human Jurkat cells. The test can be described thus: Velcade-induced apoptosis of Jurkat cells, CellTiter-Glo viability. In kind it is cell-based. The conditions noted are these: 24 hours. As to the method:
Human Jurkat cells were seeded in 96-well plates (20000 cells per well). Different concentrations of the compounds were added one hour prior to Velcade treatment, followed by the addition of 50 nM Velcade. After incubation for 24 hours, cell viability was measured by CellTiter-Glo Luminescent Cell Viability Assay.
(§1) The rates of cell death were measured in triplicate or quadruplicate in a 96-well or 384-well plate by using SYTOX Green Nucleic Acid Stain (Invitrogen) or ToxiLight Non-destructive Cytotoxicity BioAssay Kit (Lonza). The intensity of luminescence was determined in an EnSpire Multimode Plate Reader (PerkinElmer). Cytotoxicity is expressed as percentages of cell death per well after deducting the background signal in non-induced cells and compared to that of the maximal cell death with 100% Lysis Reagent. The rates of cell viability were determined by using CellTiter-Glo Luminescent Cell Viability Assay (Promega) following the manufacturer's protocol and the results are expressed as percentages of luminescence intensity per well after deducting the background signal in blank well and compared to that of the viability in the non-treated wells. Concentration of drugs used for inducing or inhibiting cell death, mTNFα: 1 ng/ml; 5Z-7-Oxozeaenol: 0.5 μM; Velcade: 50 nM; Apt-1/ICCB-19/ICCB-19i/Nec-1s: 10 μM.
For orientation: ATP-based viability assays read luminescence as a measure of living cells.

Test [2] concerns Murine RGC5(661W) cells. Nature of the test: RIPK1-dependent apoptosis (RDA) of RGC5 cells induced by TNFα plus 5Z-7-Oxozeaenol. The conditions noted are these: Mus musculus, 21 hours. The format is cell-based. As to the method:
Murine RGC5(661W) cells were seeded in 96-well plates (4000 cells per well). Different concentrations of the compounds were added one hour prior to TNFα treatment, followed by the addition of 0.5 ng/ml TNFα plus 0.5 μM 5Z-7-Oxozeaenol to induce RIPK1-dependent apoptosis (RDA). After incubation for 21 hours, cell viability was measured by CellTiter-Glo Luminescent Cell Viability Assay.

Test [3] relates to cleaved caspase-3 in Jurkat cells. The test can be described thus: Cleaved caspase-3 immunoblot in Velcade-treated cells. The following applies: 10 uM; 12 h 50 nM Velcade. In kind it is cell-based, human. As to the method:
The levels of cleaved caspase-3 were determined by immunoblotting.
(§2) Specifically, wild-type MEF cells were pretreated for 1 h with 10 uM of the specified compounds, followed by 2 h treatment with 0.5 uM 5z-7-oxozeaenol and 1 ng/mL TNFα. Cell lysates were prepared and immunoblotted for cleaved-caspase 3 (CC3). Wild-type Jurkat cells were also pretreated for 1 h with 10 uM of the specified compounds, followed by 12 h treatment with 50 nM Velcade. Cell lysates were prepared and immunoblotted for cleaved-caspase 3 (CC3).
For orientation: In western blotting, separated proteins are transferred to a membrane and probed.

In test [4] the test system is MEF cells. The test can be described thus: Autophagy by LC3II western blotting in MEF cells (FIG. 21). In kind it is cell-based, mouse. The conditions noted are these: 10 uM, 1 h pretreatment, 6 h vehicle or 40 mM NH4Cl. The method, then: (§3) Wild-type H4 and MEF cells that were pretreated for 1 h with 10 uM of the specified compounds, followed by 6 h treatment with either vehicle or 40 mM NH4Cl. Cell lysates were prepared and immunoblotted for LC3-I and LC3-II. Autophagy was determined by LC3II levels using western blotting.

For test [5], the system named is cleaved-caspase 3 (CC3) in MEF cells. Nature of the test: Cleaved caspase 3 immunoblot in MEF cells treated with 5z-7-oxozeaenol and TNFα (FIG. 22). The format is cell-based, mouse. The following applies: 10 uM; 2 h 0.5 uM 5z-7-oxozeaenol and 1 ng/mL TNFα. As to the method:
as §2

Test [6] has as its system H4 cells. Nature of the test: Autophagy by LC3II western blotting in H4 cells (FIG. 21). In kind it is cell-based. The conditions noted are these: 10 uM, 1 h pretreatment, 6 h vehicle or 40 mM NH4Cl. The method, then: as §3
In test [7] the test system is MEFs. The test can be described thus: RDA in MEFs induced by mTNFα and 5Z-7-Oxozeaenol, cell survival. In kind it is cell-based, mouse. The conditions noted are these: 10 μM. The method, then: as §1
Test [8] deals with H4-GFP-LC3 cells. The test can be described thus: Autophagy induction, GFP-LC3 puncta and LC3II immunoblotting. The format is cell-based. The conditions noted are these: 10 μM, 6 h (zVAD.fmk 20 μM). The method, then:
Mean ±s.e.m. (n=5). One-way ANOVA, post hoc Dunnett's test.
Autophagy was determined by LC3II levels using immunoblotting. SE=shorter exposure, LE=longer exposure.
Autophagy was measured by LC3II induction and p62 reduction by immunoblotting. The levels of LC3II in cells treated with both Apt-1 and NH4Cl, the latter of which inhibits lysosome, were higher than that treated with either Apt-1 or NH4Cl alone. Thus, ICCB-19/Apt-1, but not ICCB-19i, induce autophagic flux. Mean ±s.e.m. from technical triplicates (n=3), representative of 3 independent experiments. Two-tailed t-test. **P=0.0037.
Levels of LC3II determined by immunoblotting.
Cells were seeded at 2.5×10^4 cells per well on poly-L-lysine coated glass cover slips and transfected as described. Cells were fixed in 4% paraformaldehyde, followed by permeabilization with 0.1% Triton X-100. Nuclei were stained using DAPI (Sigma). Cells expressing GFP or RFP-fusion proteins were imaged with an Olympus Fluoview FV1000 confocal microscope (Olympus) using a 40×objective. For GFP-LC3 and DsRed-FYVE puncta quantification, the average spot intensity in 1000 cells from each indicated sample was determined. Images were processed using ImageJ and Photoshop CC. Concentration of compounds used to induce or block autophagy: 10 μM (Apt-1, ICCB-19, ICCB-19i or Spautin-1), for 6 h or as indicated.

Setting [9] is: Table 1, 50 nM Velcade, read-out: Apoptosis of Jurkat cells induced by Velcade (IC50 μM).
Where [10] appears, read: Table 2, 0.5 ng/ml TNFα plus 0.5 μM 5Z-7-Oxozeaenol, read-out: RGC5 T/5z7 IC50.
Setting [11] is: Table 3, 0.5 ng/ml TNFα plus 0.5 μM 5Z-7-Oxozeaenol, read-out: RGC5 T/5z7 IC50/μM.
[12] abbreviates: Table 3, 50 nM Velcade, read-out: Jurkat Velcade IC50/μM.

Like-named read-outs stand apart in the source and are kept apart here. Where a SMILES comes first, the peptide text is derived from it. The star is where a group is joined. Cbz = O=C(OCc1ccccc1)*; CH2F = FC*

As for `N=C(N)SCc1ccccc1F` [Compound 1], the IC50 in test [1] (setting [9]) came out at 6.2 µM.

As for `COc1ccc(CSC(=N)N)cc1[N+](=O)[O-]` [Compound 2], the IC50 in test [1] (setting [9]) worked out at 4.4 µM.

As to `Cc1ccccc1NC(=O)CSC1=NCCN1` [Compound 3], the IC50 in test [1] (setting [9]) was 32.1 µM.

As for `Cc1ccc(NC(=O)CSC2=NCCN2)cc1` [Compound 4], the IC50 in test [1] (setting [9]) worked out at 10.5 µM.

For `COc1ccc(NC(=O)CSC2=NCCN2)cc1` [Compound 5], in test [1] (setting [9]), the IC50 was determined as 46.4 µM.

For the molecule `N#Cc1ccc(CSC(=N)N)cc1` [Compound 7], the IC50 in test [1] (setting [9]) came out at 6.84 µM.

For the molecule `FC(F)=C(F)CCSC1=NCCN1` [Compound 8], the IC50 in test [1] (setting [9]) was 17.3 µM.

As for `O=C(CSC1=NCCN1)NC1CCCCC1` [Compound 12], the IC50 in test [2] (setting [10]) was found to be 2.36 µM.

For the molecule `O=C(CSC1=NCCN1)NC1CCCC1` [Compound 13], in test [2] (setting [10]), the IC50 was 3.42 µM.

For the molecule `O=C(CSC1=NCCN1)NC1CCC1` [Compound 14], the IC50 in test [2] (setting [10]) was determined as 4.51 µM.

On to `CN(C(=O)CSC1=NCCN1)C1CCCCCC1` [Compound 16], for which the IC50 in test [2] (setting [11]) is 8.84 µM; in test [1] (setting [12]), 1.46 µM.

On to `CC(SC1=NCCN1)C(=O)NC1CCCCCC1` (stereo not drawn) [Compound 18], for which the IC50 in test [2] (setting [11]) stood at 4.02 µM; in test [1] (setting [12]) it was 3.66 µM.

As to `CN1CCN=C1SCC(=O)NC1CCCCCC1` [Compound 19], the IC50 in test [2] (setting [11]) came out at 3.33 µM; in test [1] (setting [12]), 1.8 µM.

In the case of `CC(SC1=NCCN1)C(=O)N(C)C1CCCCCC1` (stereo not drawn) [Compound 25], the IC50 in test [2] (setting [11]) was determined as 2.87 µM; in test [1] (setting [12]) it was 1.22 µM.

As to `CN1CCN=C1SCC(=O)N(C)C1CCCCCC1` [Compound 26], the IC50 in test [2] (setting [11]) is 3.08 µM; in test [1] (setting [12]) it was 1.99 µM.

In the case of `CC(SC1=NCCN1C)C(=O)NC1CCCCCC1` (stereo not drawn) [Compound 27], the IC50 in test [2] (setting [11]) worked out at 2.81 µM; in test [1] (setting [12]), 3.06 µM.

With `CC(SC1=NCCN1C)C(=O)N(C)C1CCCCCC1` (stereo not drawn) [Compound 28], the values for the IC50 in test [2] (setting [11]) and in test [1] (setting [12]) were 2.93 µM and 0.953 µM, respectively.

On to `CC(C)C(SC1=NCCN1C)C(=O)NC1CCCCCC1` (stereo not drawn) [Compound 29], for which the IC50 in test [2] (setting [11]) was determined as 1.83 µM; in test [1] (setting [12]) it was 3.87 µM.

As for `CN1CCN=C1SC(C)(C)C(=O)NC1CCCCCC1` [Compound 33], the IC50 was 1.67 µM in test [2] (setting [11]) and 1.04 µM in test [1] (setting [12]).

Regarding `CN1CCN=C1SC(C(=O)NC1CCCCCC1)c1ccccc1Cl` (stereo not drawn) [Compound 34], the IC50 was determined as 2.21 µM in test [2] (setting [11]) and 0.882 µM in test [1] (setting [12]).

As for `CN1CCN=C1SC(C(=O)NC1CCCCCC1)c1ccc(Cl)cc1` (stereo not drawn) [Compound 35], the IC50 in test [2] (setting [11]) stood at 1.6 µM; in test [1] (setting [12]) it was 2.14 µM.

For `CCN1CCN=C1SC(C(=O)NC1CCCCCC1)c1ccccc1` (stereo not drawn) [Compound 36], the results for the IC50 in test [2] (setting [11]) and in test [1] (setting [12]) were 1.79 µM and 1.07 µM, respectively.

For the molecule `O=C(CSC1=NCCN1)NC(c1ccccc1)c1ccccc1` [Compound 37], the IC50 in test [2] (setting [11]) amounted to 3.05 µM; in test [1] (setting [12]), 1.17 µM.

As to `C/N=C(\NC)NCC(=O)N1CCCC1` [Compound 38], the “cleaved caspase 3 in Jurkat cells” value in test [3] is given as “block cleaved caspase 3”. Further, the “autophagy (LC3II levels) in MEF cells” value in test [4] is given as “induce autophagy”. The “cleaved caspase 3 in MEF cells” value in test [5] is “block cleaved caspase 3”. For the same molecule, the “autophagy (LC3II levels) in H4 cells” value in test [6] is listed as “induce autophagy”.

On to `Fc1ccccc1CSC1=NCCN1` [Compound 40], for which, in test [3], the “cleaved caspase 3 in Jurkat cells” value is given as “block cleaved caspase 3”. Besides, in test [4], the “autophagy (LC3II levels) in MEF cells” value was “induce autophagy”. Moreover, the “cleaved caspase 3 in MEF cells” value in test [5] is listed as “block cleaved caspase 3”. Further, the IC50 in test [2] (setting [11]) worked out at 5.87 µM; in test [1] (setting [12]), 3.23 µM. The “autophagy (LC3II levels) in H4 cells” value in test [6] is reported as “induce autophagy”.

Take `CN1CCN=C1SC(C(=O)NC(c1ccccc1)c1ccccc1)c1ccccc1` (stereo not drawn) [Compound 42]: the IC50 in test [2] (setting [11]) stood at 1.57 µM; in test [1] (setting [12]) it was 1.15 µM.

As for `O=C(CSC1=NCCN1)N1CCc2ccccc21` [ICCB-17], the IC50 in test [1] (setting [9]) turned out to be 13.4 µM.

On to `CN1C(=O)NC(Cc2c[nH]c3c(Cl)cccc23)C1=O` (stereo not drawn) [Nec-1s, reference compound], for which the “protection against RDA models” value in test [7] is on record as “protected against multiple RDA models”.

`COC(=O)C[C@H](NC(=O)[C@H](C)NC(=O)[C@@H](NC(=O)OCc1ccccc1)C(C)C)C(=O)CF` [zVAD.fmk, reference compound] (Cbz-Val-Ala-Asp(OMe)-CH2F): in test [8], the induction of autophagy entry is given as “no effect on autophagy”.
